# Patent US20260250269A1, “APOPTOSIS INHIBITOR SALTS FOR CANCER” (priority 2022, published 2026)
# “And” between values parts separate entries of the source, which are not always exact repeats. Identical values can stand only once. Like-named read-outs stand apart in the source and are kept apart here.
# What was measured:
# [1] = Hygroscopicity of Form B by dynamic vapor sorption (DVS); type: physicochemical
# Protocol: Water sorption and desorption behavior of Form B was investigated by dynamic vapor sorption (DVS) at 25° C. with a cycle of 40-0-95-0-40% RH, dm/dt 0.002, minimum equilibration time of 60 min and maximum equilibration time 360 min.
# [2] = for Solubility / Solubility (in words): 37° C.; for Solubility: 24 hours; for Solubility (in words): PBS buffer
# [3] = Compression, dry grinding and wet granulation simulation experiments; type: physicochemical
# Protocol: Compression: About 50 mg of Form B was compressed for 5 minutes under 10 MPa with a hydraulic press. Potential form change and degree of crystallinity were evaluated by XRPD.
# Dry Grinding: About 20 mg of Form B was ground manually with a mortar and a pestle for 5 min. Potential form change and degree of crystallinity were evaluated by XRPD.
# Wet Granulation: Water or ethanol was added drop wise to about 20 mg of Form B until the sample was wetted sufficiently. Wet sample was ground gently with a mortar and a pestle for 3 min. Post granulation sample was dried under ambient condition for 10 min. Potential form change and degree of crystallinity were evaluated by XRPD.
# [4] = Solid-state thermal stability of the pamoate salt Form B; type: physicochemical
# Protocol: Form B was placed at 25° C./92% relative humidity (RH) in an open container, at 40° C./75% RH in an open container, and at 60° C. in a tight container for 1 week. Samples were characterized by XRPD and HPLC and inspected for appearance including color change.
# [5] = Competitive equilibration experiments of Form A and Form B; type: physicochemical
# Protocol: About 5 mg of Form A and about 5 mg of the mixture of Form A and Form B were added to 0.2 mL saturated solutions in following solvents: water, ethanol, acetone, acetonitrile, ethyl acetate, and pyridine/water (1/9 v/v). Obtained suspensions were stirred at 25° C. and 50° C., respectively, for a duration between 4 days to 4 weeks. Solid parts (wet cakes) were isolated by centrifugation filtration and investigated by XRPD.
# [6] = Solid form conversion on drying, heating or storage (XRPD); type: physicochemical
# [7] = relative humidity 0.0 at 25° C.
# [8] = relative humidity 10.0 at 25° C.
# [9] = relative humidity 20.0 at 25° C.
# [10] = relative humidity 30.0 at 25° C.
# [11] = relative humidity 40.0 at 25° C.
# [12] = relative humidity 50.0 at 25° C.
# [13] = relative humidity 60.0 at 25° C.
# [14] = relative humidity 70.0 at 25° C.
# [15] = relative humidity 80.0 at 25° C.
# [16] = relative humidity 90.0 at 25° C.
# [17] = relative humidity 95.0 at 25° C.
# [18] = after solubility test in mouse plasma
# [19] = after solubility test in pH 7.4 PBS buffer
# [20] = 25° C./92% RH open container, 1 week
# [21] = 40° C./75% RH open container, 1 week
# [22] = 60° C. in a tight container, 1 week
compound,measurement,setting,value
COCCn1c2c([n+](Cc3cnccn3)c1C)C(=O)c1ccccc1C2=O.COCCn1c2c([n+](Cc3cnccn3)c1C)C(=O)c1ccccc1C2=O.O=C([O-])c1cc2ccccc2c(Cc2c(O)c(C(=O)[O-])cc3ccccc23)c1O [Form B],Solid form by XRPD after the DVS test,[1],still Form B
same,Hygroscopicity (in words),[1]; DVS at 25° C.,slightly hygroscopic
same,1st desorption weight % change,[1]; [7],0.02 weight %
same,1st sorption weight % change,[1]; [7],0.02 weight %
same,2nd desorption weight % change,[1]; [7],0.00 weight %
same,2nd sorption weight % change,[1]; [7],0.00 weight %
same,1st desorption weight % change,[1]; [8],0.06 weight %
same,1st sorption weight % change,[1]; [8],0.06 weight %
same,2nd desorption weight % change,[1]; [8],0.05 weight %
same,2nd sorption weight % change,[1]; [8],0.04 weight %
same,1st desorption weight % change,[1]; [9],0.09 weight %
same,1st sorption weight % change,[1]; [9],0.08 weight %
same,2nd desorption weight % change,[1]; [9],0.08 weight %
same,2nd sorption weight % change,[1]; [9],0.06 weight %
same,1st desorption weight % change,[1]; [10],0.13 weight %
same,1st sorption weight % change,[1]; [10],0.11 weight %
same,2nd desorption weight % change,[1]; [10],0.10 weight %
same,2nd sorption weight % change,[1]; [10],0.08 weight %
same,1st desorption weight % change,[1]; [11],0.16 weight %
same,1st sorption weight % change,[1]; [11],0.12 weight %
same,2nd desorption weight % change,[1]; [11],0.13 weight %
same,2nd sorption weight % change,[1]; [11],0.10 weight %
same,1st sorption weight % change,[1]; [12],0.15 weight %
same,2nd desorption weight % change,[1]; [12],0.16 weight %
same,1st sorption weight % change,[1]; [13],0.17 weight %
same,2nd desorption weight % change,[1]; [13],0.18 weight %
same,1st sorption weight % change,[1]; [14],0.20 weight %
same,2nd desorption weight % change,[1]; [14],0.21 weight %
same,1st sorption weight % change,[1]; [15],0.23 weight %
same,2nd desorption weight % change,[1]; [15],0.25 weight %
same,1st sorption weight % change,[1]; [16],0.35 weight %
same,2nd desorption weight % change,[1]; [16],0.38 weight %
same,1st sorption weight % change,[1]; [17],0.64 weight %
same,2nd desorption weight % change,[1]; [17],0.64 weight %
same,Water absorbed,[1]; up to 95% RH at 25° C.,about 0.64%
same,Form change by XRPD after solubility test,[2],no form change
same,XRPD of residual solids,[2]; [18],Form B
same,XRPD of residual solids,[2]; [19],Form B
same,XRPD of residual solids,[2]; after solubility test in water,Form B
same,Solubility,[2]; mouse plasma,342 µg/mL and 344 µg/mL
same,Solubility,"[2]; pH 7.4, PBS buffer",78 µg/mL
same,Solubility,[2]; water,14 µg/mL and 13 µg/mL
same,Solubility (in words),"[2]; water, mouse plasma",comparable low solubility
same,Form change and crystallinity by XRPD after compression,"[3]; 5 minutes under 10 MPa, hydraulic press",no form change and no obvious crystallinity decrease
same,Form change and crystallinity by XRPD after dry grinding,[3]; ground manually with mortar and pestle for 5 min,no form change and slight crystallinity decrease
same,Form change and crystallinity by XRPD after wet granulation,"[3]; water or ethanol, ground 3 min, dried 10 min",no form change and no obvious crystallinity decrease
same,Appearance (Color) change,[4]; [20],None
same,Purity by HPLC,[4]; [20],99.4%
same,XRPD,[4]; [20],Form B
same,Physical and chemical stability,"[4]; 25° C./92% RH, 40° C./75% RH, 60° C., 1 week",physically stable and chemically stable
same,Appearance (Color) change,[4]; [21],None
same,Purity by HPLC,[4]; [21],99.5%
same,XRPD,[4]; [21],Form B
same,Appearance (Color) change,[4]; [22],none
same,Purity by HPLC,[4]; [22],99.4%
same,XRPD,[4]; [22],Form B
same,Appearance (Color) change,[4]; Initial,None
same,Purity by HPLC,[4]; Initial,99.3%
same,XRPD,[4]; Initial,Form B
same,Relative stability among solid forms,[5]; among Forms A-J,most stable form among Forms A-J
CC(=O)N(C)C.COCCn1c2c([n+](Cc3cnccn3)c1C)C(=O)c1ccccc1C2=O.COCCn1c2c([n+](Cc3cnccn3)c1C)C(=O)c1ccccc1C2=O.O=C([O-])c1cc2ccccc2c(Cc2c(O)c(C(=O)[O-])cc3ccccc23)c1O [Form G],Solid form obtained on storage,[6]; storing at 25° C. for about 1 day,Form H
COCCn1c2c([n+](Cc3cnccn3)c1C)C(=O)c1ccccc1C2=O.COCCn1c2c([n+](Cc3cnccn3)c1C)C(=O)c1ccccc1C2=O.O=C([O-])c1cc2ccccc2c(Cc2c(O)c(C(=O)[O-])cc3ccccc23)c1O [Form A],Form change by XRPD after solubility test,[2],no form change
same,Water solubility (in words),[2],extremely low
same,XRPD of residual solids,[2]; [18],Form A
same,XRPD of residual solids,[2]; [19],Form A
same,XRPD of residual solids,[2]; after solubility test in water,Form A
same,Solubility,[2]; mouse plasma,436 µg/mL and 403 µg/mL
same,Solubility,"[2]; pH 7.4, PBS buffer",84 µg/mL and 86 µg/mL
same,Solubility,[2]; water,12 µg/mL and 13 µg/mL
same,Solubility (in words),"[2]; water, mouse plasma",comparable low solubility
same,Solid form conversion in competitive experiments,"[5]; in ethanol, acetone, ACN and pyridine/water",converted to Form B
CCO.COCCn1c2c([n+](Cc3cnccn3)c1C)C(=O)c1ccccc1C2=O.COCCn1c2c([n+](Cc3cnccn3)c1C)C(=O)c1ccccc1C2=O.O=C([O-])c1cc2ccccc2c(Cc2c(O)c(C(=O)[O-])cc3ccccc23)c1O [Form C],Solid form conversion,[6]; exposure to ambient condition about 2 hours and drying at 25° C. under vacuum about 2 hours,converted to a mixture of Form A and Form B
CC(=O)N(C)C.COCCn1c2c([n+](Cc3cnccn3)c1C)C(=O)c1ccccc1C2=O.COCCn1c2c([n+](Cc3cnccn3)c1C)C(=O)c1ccccc1C2=O.O=C([O-])c1cc2ccccc2c(Cc2c(O)c(C(=O)[O-])cc3ccccc23)c1O [Form H],Solid form conversion,[6]; after heating to 170° C.,converted to a mixture of Form A and Form B
